Experimental data as given in ChEMBL document CHEMBL4402510, “Caprazamycins: Promising lead structures acting on a novel antibacterial target MraY” (Eur J Med Chem, 2019).
pIC50: −log10 of the molar value. In brackets after ≈: the same amount, converted by molar mass.

Tests used:
Enterococcus faecium [1] = assay: Antibacterial activity against t Enterococcus faecium after 20 hrs by NCCLS-based two-fold broth dilution method; assay type: functional
Enterococcus faecium [2] = assay: Antibacterial activity against Enterococcus faecium SR7917 (VRE); assay type: functional
Enterococcus faecium [3] = assay: Antibacterial activity against Enterococcus faecium ATCC 19434; assay type: functional
Staphylococcus aureus [4] = assay: Antibacterial activity against methicillin susceptible Staphylococcus aureus ATCC 29213; assay type: functional
Enterococcus faecalis [5] = assay: Antibacterial activity against Enterococcus faecalis ATCC 29212; assay type: functional
Staphylococcus aureus [6] = assay: Antibacterial activity against methicillin resistant Staphylococcus aureus after 20 hrs by NCCLS-based two-fold broth dilution method; assay type: functional
Enterococcus faecalis [7] = assay: Antibacterial activity against Enterococcus faecalis SR7914 (VRE); assay type: functional
Staphylococcus aureus [8] = assay: Antibacterial activity against methicillin susceptible Staphylococcus aureus after 20 hrs by NCCLS-based two-fold broth dilution method; assay type: functional
Staphylococcus aureus [9] = assay: Antibacterial activity against methicillin resistant Staphylococcus aureus SR3637; assay type: functional
Enterococcus faecalis [10] = assay: Antibacterial activity against t Enterococcus faecalis after 20 hrs by NCCLS-based two-fold broth dilution method; assay type: functional
Enterococcus faecalis [11] = assay: Antibacterial activity against t Enterococcus faecalis VRE after 20 hrs by NCCLS-based two-fold broth dilution method; assay type: functional
Enterococcus faecium [12] = assay: Antibacterial activity against t Enterococcus faecium VRE after 20 hrs by NCCLS-based two-fold broth dilution method; assay type: functional
[13] = tested on: Mycolicibacterium smegmatis; assay: Antibacterial activity against Mycobacterium smegmatis; assay type: functional
Mycobacterium avium = assay: Antibacterial activity against Mycobacterium avium; assay type: functional
[14] = tested on: Mycobacterium intracellulare; assay: Antibacterial activity against Mycobacterium intracellulare; assay type: functional
[15] = tested on: Mycobacterium tuberculosis; assay: Antibacterial activity against Mycobacterium tuberculosis; assay type: functional
Haemophilus influenzae [16] = assay: Antibacterial activity against Haemophilus influenzae ATCC 10211; assay type: functional
Pseudomonas aeruginosa [17] = assay: Antibacterial activity against Pseudomonas aeruginosa YY165; assay type: functional
Haemophilus influenzae [18] = assay: Antibacterial activity against Haemophilus influenzae after 20 hrs by NCCLS-based two-fold broth dilution method; assay type: functional
Pseudomonas aeruginosa [19] = assay: Antibacterial activity against Pseudomonas aeruginosa after 20 hrs by NCCLS-based two-fold broth dilution method; assay type: functional
Acinetobacter baumannii = assay: Antibacterial activity against Acinetobacter baumannii ATCC 19606; assay type: functional; settings: ATCC 19606 = CIP 70.34 = JCM 6841
Pseudomonas aeruginosa [20] = assay: Antibacterial activity against Pseudomonas aeruginosa PAO1 deltamexB; assay type: functional
[21] = target: T1, Phospho-N-acetylmuramoyl-pentapeptide-transferase (Staphylococcus aureus, UniProt P0C1R8); assay: Inhibition of MraY in Staphylococcus aureus
T1 sequence (P0C1R8 whole entry): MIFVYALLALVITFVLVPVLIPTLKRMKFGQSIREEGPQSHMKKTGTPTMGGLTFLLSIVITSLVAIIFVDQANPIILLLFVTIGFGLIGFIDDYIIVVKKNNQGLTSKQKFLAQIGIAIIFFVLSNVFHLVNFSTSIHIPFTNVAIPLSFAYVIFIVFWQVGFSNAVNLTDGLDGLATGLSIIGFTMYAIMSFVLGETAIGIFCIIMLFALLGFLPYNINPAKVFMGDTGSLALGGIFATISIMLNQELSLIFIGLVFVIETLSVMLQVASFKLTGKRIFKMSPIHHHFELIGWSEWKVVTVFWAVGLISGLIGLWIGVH

Streptococcus pneumoniae = assay: Antibacterial activity against Streptococcus pneumoniae; assay type: functional
Escherichia coli [22] = assay: Antibacterial activity against Escherichia coli ATCC 25922; assay type: functional
Escherichia coli [23] = assay: Antibacterial activity against Escherichia coli after 20 hrs by NCCLS-based two-fold broth dilution method; assay type: functional

SMILES | MIC (Enterococcus faecium [1]) | MIC (Enterococcus faecium [2]) | MIC (Enterococcus faecium [3]) | MIC (Staphylococcus aureus [4]) | MIC (Enterococcus faecalis [5]) | MIC (Staphylococcus aureus [6]; read-out: MIC) | MIC (Enterococcus faecalis [7]) | MIC (Staphylococcus aureus [8]; read-out: MIC) | MIC (Staphylococcus aureus [9]) | MIC (Enterococcus faecalis [10]; read-out: MIC) | MIC (Enterococcus faecalis [11]; read-out: MIC) | MIC (Enterococcus faecium [12]; read-out: MIC) | MIC (Haemophilus influenzae [16]) | MIC (Pseudomonas aeruginosa [17]) | further results
CCCCCCCCCCCCCCCCC[C@@H]1CN[C@@H]([C@H](O[C@@H]2O[C@H](CN)[C@@H](O)[C@H]2O)[C@H]2O[C@@H](n3ccc(=O)[nH]c3=O)[C@H](O)[C@@H]2O)C(=O)N(C)[C@@H]1C(=O)O | 8 µg/mL (≈ 10.2 µM) | 16 µg/mL (≈ 20.4 µM) | 8 µg/mL (≈ 10.2 µM) | 8 µg/mL (≈ 10.2 µM) | 8 µg/mL (≈ 10.2 µM) | 4 µg/mL (≈ 5.1 µM) | 16 µg/mL (≈ 20.4 µM) | 4 µg/mL (≈ 5.1 µM) | 8 µg/mL (≈ 10.2 µM) | 4 µg/mL (≈ 5.1 µM) | 8 µg/mL (≈ 10.2 µM) | 8 µg/mL (≈ 10.2 µM) | – | – | –
CO[C@@H]1[C@@H](OC)[C@H](C)O[C@@H](OC(=O)C[C@@H](C)CC(=O)O[C@@H](CCCCCCCCC(C)C)CC(=O)O[C@H]2CN(C)[C@@H]([C@H](O[C@@H]3O[C@H](CN)[C@@H](O)[C@H]3O)[C@H]3O[C@@H](n4ccc(=O)[nH]c4=O)[C@H](O)[C@@H]3O)C(=O)N(C)[C@@H]2C(=O)O)[C@@H]1OC | – | – | – | – | – | – | – | – | – | – | – | – | – | – | MIC [13]: 0.78 to 1.56 µg/mL (≈ 0.698 to 1.4 µM); MIC (Mycobacterium avium): 0.1 µg/mL (≈ 0.0894 µM); MIC [14]: 1.56 µg/mL (≈ 1.4 µM); MIC [15]: 1.56 µg/mL (≈ 1.4 µM)
CCCCCCCCCCCCCC(=O)N[C@@H]1CCN[C@@H]([C@H](O[C@@H]2O[C@H](CN)[C@@H](O)[C@H]2O)[C@H]2O[C@@H](n3ccc(=O)[nH]c3=O)[C@H](O)[C@@H]2O)C1 | 16 µg/mL (≈ 23.4 µM) | 8 µg/mL (≈ 11.7 µM) | 16 µg/mL (≈ 23.4 µM) | 16 µg/mL (≈ 23.4 µM) | 2 µg/mL (≈ 2.92 µM) | 32 µg/mL (≈ 46.8 µM) | 2 µg/mL (≈ 2.92 µM) | 16 µg/mL (≈ 23.4 µM) | 32 µg/mL (≈ 46.8 µM) | 2 µg/mL (≈ 2.92 µM) | 2 µg/mL (≈ 2.92 µM) | 8 µg/mL (≈ 11.7 µM) | 32 µg/mL (≈ 46.8 µM) | 32 µg/mL (≈ 46.8 µM) | MIC (Haemophilus influenzae [18]): 32 µg/mL (≈ 46.8 µM); MIC (Pseudomonas aeruginosa [19]): 32 µg/mL (≈ 46.8 µM)
CCCCCCCCCCCC[C@@H](CC(=O)O[C@H]1CN(C)[C@@H]([C@H](O[C@@H]2O[C@H](CN)[C@@H](O)[C@H]2O)[C@H]2O[C@@H](n3ccc(=O)[nH]c3=O)[C@H](O)[C@@H]2O)C(=O)N(C)[C@@H]1C(=O)O)OC(=O)C[C@H](C)CC(=O)O[C@@H]1O[C@@H](C)[C@H](OC)[C@@H](OC)[C@H]1OC | – | – | – | – | – | – | – | – | – | – | – | – | – | – | MIC [13]: 0.78 to 1.56 µg/mL (≈ 0.689 to 1.38 µM); MIC (Mycobacterium avium): < 0.025 µg/mL; MIC [14]: 0.78 µg/mL (≈ 0.689 µM); MIC [15]: 0.78 µg/mL (≈ 0.689 µM)
CC(=O)N[C@@H]1CCN[C@@H]([C@@H](O[C@@H]2O[C@H](CN)[C@@H](O)[C@H]2O)[C@H]2O[C@@H](n3ccc(=O)[nH]c3=O)[C@H](O)[C@@H]2O)C1 | – | > 64 µg/mL | > 64 µg/mL | > 64 µg/mL | > 64 µg/mL | – | > 64 µg/mL | – | > 64 µg/mL | – | – | – | > 64 µg/mL | > 64 µg/mL | MIC (Acinetobacter baumannii): > 64 µg/mL; MIC (Pseudomonas aeruginosa [20]): > 64 µg/mL; pIC50 [21]: < 2.38; MIC (Streptococcus pneumoniae): > 64 µg/mL; MIC (Escherichia coli [22]): > 64 µg/mL
CCCCCCCCCCCCCCCC(=O)N[C@H]1CCN[C@H]([C@@H](O[C@@H]2O[C@H](CN)[C@@H](O)[C@H]2O)[C@H]2O[C@@H](n3ccc(=O)[nH]c3=O)[C@H](O)[C@@H]2O)C1 | 32 µg/mL (≈ 45 µM) | 8 µg/mL (≈ 11.2 µM) | 32 µg/mL (≈ 45 µM) | 8 µg/mL (≈ 11.2 µM) | 16 µg/mL (≈ 22.5 µM) | 16 µg/mL (≈ 22.5 µM) | 16 µg/mL (≈ 22.5 µM) | 8 µg/mL (≈ 11.2 µM) | 16 µg/mL (≈ 22.5 µM) | 16 µg/mL (≈ 22.5 µM) | 16 µg/mL (≈ 22.5 µM) | 8 µg/mL (≈ 11.2 µM) | > 64 µg/mL | > 64 µg/mL | MIC (Acinetobacter baumannii): > 64 µg/mL; MIC (Pseudomonas aeruginosa [20]): > 64 µg/mL; pIC50 [21]: < 2.57; MIC (Streptococcus pneumoniae): 64 µg/mL (≈ 89.9 µM); MIC (Escherichia coli [23]): 32 µg/mL (≈ 45 µM); MIC (Escherichia coli [22]): 32 µg/mL (≈ 45 µM)
CCCCCCCCCCCCCCCC(=O)NC[C@@H]1C[C@H]2[C@@H](C(=O)N1CCCNC(=N)N)[C@H]([C@H]1O[C@@H](n3ccc(=O)[nH]c3=O)[C@H](O)[C@@H]1O)ON2CCCN | – | 8 µg/mL (≈ 10.3 µM) | – | 8 µg/mL (≈ 10.3 µM) | 16 µg/mL (≈ 20.6 µM) | – | 16 µg/mL (≈ 20.6 µM) | – | 8 µg/mL (≈ 10.3 µM) | – | – | – | – | – | MIC (Staphylococcus aureus [6]): 8 µg/mL (≈ 10.3 µM); MIC (Staphylococcus aureus [8]): 8 µg/mL (≈ 10.3 µM); MIC (Enterococcus faecalis [10]): 16 µg/mL (≈ 20.6 µM); MIC (Enterococcus faecalis [11]): 16 µg/mL (≈ 20.6 µM); MIC (Enterococcus faecium [12]): 8 µg/mL (≈ 10.3 µM)
